target: EGFR (human) (UniProt P00533); conditions: nci-h1975
Sequence (P00533 whole entry, looked up): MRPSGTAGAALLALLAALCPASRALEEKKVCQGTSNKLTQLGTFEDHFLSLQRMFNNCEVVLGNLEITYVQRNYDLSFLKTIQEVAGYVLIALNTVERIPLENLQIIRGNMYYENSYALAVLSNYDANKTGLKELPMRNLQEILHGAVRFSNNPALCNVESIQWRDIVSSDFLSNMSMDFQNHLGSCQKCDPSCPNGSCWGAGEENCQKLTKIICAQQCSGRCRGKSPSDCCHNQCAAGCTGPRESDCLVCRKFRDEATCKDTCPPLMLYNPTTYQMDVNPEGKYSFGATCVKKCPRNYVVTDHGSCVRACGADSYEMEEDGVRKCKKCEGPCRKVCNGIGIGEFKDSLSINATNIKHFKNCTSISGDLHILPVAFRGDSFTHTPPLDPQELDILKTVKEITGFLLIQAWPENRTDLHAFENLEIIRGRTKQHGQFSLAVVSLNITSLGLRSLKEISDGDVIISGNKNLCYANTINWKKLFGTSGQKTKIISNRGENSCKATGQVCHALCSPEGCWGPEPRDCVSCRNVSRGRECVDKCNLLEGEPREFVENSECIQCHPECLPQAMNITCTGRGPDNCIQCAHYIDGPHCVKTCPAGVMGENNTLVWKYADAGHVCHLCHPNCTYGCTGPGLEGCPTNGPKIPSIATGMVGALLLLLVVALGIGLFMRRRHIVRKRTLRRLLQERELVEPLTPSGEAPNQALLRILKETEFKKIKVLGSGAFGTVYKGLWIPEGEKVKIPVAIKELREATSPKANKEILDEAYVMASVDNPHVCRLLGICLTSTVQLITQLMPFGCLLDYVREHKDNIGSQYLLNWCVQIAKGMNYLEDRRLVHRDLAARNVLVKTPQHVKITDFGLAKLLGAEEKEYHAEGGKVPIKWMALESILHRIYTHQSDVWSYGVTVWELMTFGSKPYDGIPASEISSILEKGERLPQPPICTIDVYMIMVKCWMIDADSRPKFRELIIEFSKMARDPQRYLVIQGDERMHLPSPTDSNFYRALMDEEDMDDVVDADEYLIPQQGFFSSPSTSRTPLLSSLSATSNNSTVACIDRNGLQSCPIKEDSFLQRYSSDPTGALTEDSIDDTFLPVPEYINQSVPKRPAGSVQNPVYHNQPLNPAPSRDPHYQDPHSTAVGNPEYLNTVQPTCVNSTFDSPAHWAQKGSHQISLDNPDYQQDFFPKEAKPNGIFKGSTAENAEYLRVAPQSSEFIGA

Q: For CC(Nc1ncnc2[nH]c(-c3ccc(O)cc3)cc12)c1ccccc1 (stereo not given), which IC50 is on record?
A: The IC50 was 8 µM.

same assay, conditions: nci-h1975, concentration not given here

Q: With OCCC#Cc1nc(-c2ccc(F)cc2)c(-c2ccncc2)n1CCCc1ccccc1 as the molecule, how does the inhibition read?
A: The inhibition was under 25%.

Q: With Cc1ccc(NC(=O)c2ccc(CN3CCN(C)CC3)cc2)cc1Nc1nccc(-c2cccnc2)n1 as the molecule, how does the inhibition read?
A: Its inhibition is under 25%.

Q: For Cc1cc(Nc2ncc3cc(-c4c(Cl)cccc4Cl)c(=O)n(C)c3n2)ccc1F, which inhibition is on record?
A: The inhibition was 55%.

Q: How did the inhibition turn out when CC(C)(C)c1cnc(CSc2cnc(NC(=O)C3CCNCC3)s2)o1 was run?
A: The inhibition was 63%.

Q: With O=c1ncn2nc(Sc3ccc(F)cc3F)ccc2c1-c1c(Cl)cccc1Cl as the molecule, how does the inhibition read?
A: Its inhibition is under 25%.

Q: Which inhibition does the source give for Cc1cc(Nc2cc(N3CCN(C)CC3)nc(Sc3ccc(NC(=O)C4CC4)cc3)n2)[nH]n1 here?
A: The inhibition was 34%.

Q: Which inhibition does the source give for CC(C)(C)c1nc2c3ccc(F)cc3c3c(=O)[nH]ccc3c2[nH]1 here?
A: The inhibition was under 25%.

Q: COc1cccc(-c2cc(=O)c3ccccc3o2)c1N was tested. Which inhibition did it give?
A: Its inhibition is under 25%.

Q: Which inhibition does the source give for NC(=O)Nc1sc(-c2ccc(F)cc2)cc1C(N)=O here?
A: Its inhibition is 35%.

Q: For COc1cc2ncnc(Nc3ccc(OCc4ccccc4)cc3)c2cc1OC, which inhibition is on record?
A: The inhibition was under 25%.

Q: For Cc1ccc(NC(=O)c2cccc(N(C)C)c2)cc1NC(=O)c1ccc(O)cc1, which inhibition is on record?
A: Its inhibition is under 25%.

Q: Cc1cc(C)c(/C=C2\C(=O)Nc3ccc(Cl)cc32)[nH]1 was tested. Which inhibition did it give?
A: The inhibition was under 25%.

Q: O=C1NC(=O)C(c2ccccc2[N+](=O)[O-])=C1Nc1ccc(O)c(Cl)c1 was tested. Which inhibition did it give?
A: Its inhibition is under 25%.

Q: O=C1Nc2ccc(I)cc2/C1=C\c1cc(Br)c(O)c(Br)c1 was tested. Which inhibition did it give?
A: The inhibition was under 25%.

Q: Which inhibition does the source give for CC(C)(C)n1nc(-c2cccc3ccccc23)c2c(N)ncnc21 here?
A: The inhibition was 60%.

Q: Which inhibition does the source give for c1ccc(-c2n[nH]cc2-c2ccnc3ccccc23)nc1 here?
A: Its inhibition is under 25%.

Q: How did the inhibition turn out when O=C(Nc1cc(C(F)(F)F)cc(C(F)(F)F)c1)c1cc(Cl)ccc1O was run?
A: Its inhibition is 76%.

Q: For Cn1cc(C2=C(c3ccc(Cl)cc3Cl)C(=O)NC2=O)c2ccccc21, which inhibition is on record?
A: The inhibition was 37%.

Q: CC(C)[C@H](CO)Nc1nc(Nc2ccc(C(=O)O)c(Cl)c2)c2ncn(C(C)C)c2n1 was tested. Which inhibition did it give?
A: Its inhibition is under 25%.

From the Kinase Knowledgebase extract (Sharma et al. 2016)
